Results taken from patent US20250009697A1, “COMPOSITION FOR INCREASING AMOUNT OF FOOD INGESTED AND/OR IMPROVING ANOREXIA, AND COMPOSITION FOR ACTIVATING TRANSIENT RECEPTOR POTENTIAL ANKYRIN 1” (HOUSE FOODS GROUP INC., priority 2021, published 2025).

What was measured:
Human TRPV1 (hTRPV1) = molecular target: T1, Human TRPV1 (hTRPV1) (Homo sapiens, UniProt Q8NER1); assay: TRPA1 Activation Test 2: intracellular Ca2+ imaging assay 2-2, hTRPV1 stably expressing cell line; assay type: cell-based; settings: for TRPV1 activation rate: Table 9
T1 construct: expressed in transfected cells
T1 sequence (Q8NER1 whole entry): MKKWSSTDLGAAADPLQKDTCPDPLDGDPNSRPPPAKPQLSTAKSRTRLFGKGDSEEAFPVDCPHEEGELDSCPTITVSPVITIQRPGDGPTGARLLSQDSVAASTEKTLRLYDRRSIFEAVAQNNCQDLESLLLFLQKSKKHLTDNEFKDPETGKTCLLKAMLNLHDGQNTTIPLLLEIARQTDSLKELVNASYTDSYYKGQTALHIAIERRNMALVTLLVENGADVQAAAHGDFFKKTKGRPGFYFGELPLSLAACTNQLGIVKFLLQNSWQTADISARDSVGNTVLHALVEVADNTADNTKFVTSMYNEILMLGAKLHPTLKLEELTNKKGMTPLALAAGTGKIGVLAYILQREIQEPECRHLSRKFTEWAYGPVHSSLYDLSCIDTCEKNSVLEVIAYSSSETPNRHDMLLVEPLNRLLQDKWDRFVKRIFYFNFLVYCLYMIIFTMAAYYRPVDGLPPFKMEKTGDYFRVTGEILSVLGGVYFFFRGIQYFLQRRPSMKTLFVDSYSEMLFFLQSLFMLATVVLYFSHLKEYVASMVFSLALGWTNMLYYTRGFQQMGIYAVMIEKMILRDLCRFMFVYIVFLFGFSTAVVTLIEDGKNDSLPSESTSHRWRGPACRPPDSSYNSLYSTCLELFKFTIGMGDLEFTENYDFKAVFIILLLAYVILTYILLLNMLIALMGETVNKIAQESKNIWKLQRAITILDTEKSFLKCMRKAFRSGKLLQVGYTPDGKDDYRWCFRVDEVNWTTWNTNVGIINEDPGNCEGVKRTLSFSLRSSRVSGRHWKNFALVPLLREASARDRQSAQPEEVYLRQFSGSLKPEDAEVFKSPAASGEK
Method: DNAs encoding genes described in the following Table 2 were inserted into pcDNA 5/TO vector (Invitrogen) to prepare various expression vectors.
These expression vectors were transfected into T-REx™_293 cells (Invitrogen) by a conventional method using Lipofectamine LTX (Invitrogen). Then, various transfectants were cultured and cloned by a conventional method using Dulbecco's Modified Eagle Medium (DMEM, Nacalai Tesque Inc.), containing 10% fetal bovine serum (FBS, Cytiva), […] of hygromycin B, and 5 μg/mL of blasticidin S, as a drug selection medium to obtain a hTRPA1 stably expressing cell line, a hTRPV1 stably expressing cell line, and a hTRPM8 stably expressing cell line.
A hTRPA1 stably expressing cell line in which expression of hTRPA1 had been induced in advance by a conventional method was prepared in a 96 well clear bottom plate, and the hTRPA1 activating action of rhein (produced by Tokyo Chemical Industry Co., Ltd.) was tested. Specifically, after each well was washed with PBS, 50 μL of an assay buffer (Hanks' balanced salt solution containing no calcium ion or magnesium ion that contained 1 mM of CaCl2 dihydrate, 20 mM of HEPES, and 0.1% BSA) containing calcium fluorescent indicator Calbryte™ 520 AM (produced by AAT Bioquest) in a final concentration of 4 μM was added, followed by incubating at 33° C. for 45 minutes. After washing with the assay buffer, 100 μL of the assay buffer was added to each well. […] Then, a well in which an assay buffer containing ionomycin (having a final concentration of 10 μM after the addition) instead of the test samples was added was also prepared as a reference for fluorescence intensity.
(§1) The measurement was continued from the start of the measurement up to 120 seconds, and the TRPA1 activation ability of the test samples was calculated in accordance with the following formula.
Activation rate (%)=(Fmax[s]−F0)/(Fmax[i]−F0)×100 • Fmax[s]: The maximum value of the fluorescence intensity when the test sample or positive control was added • F0: The average value of the fluorescence intensity for 20 seconds after the start of the measurement (base line) • Fmax[i]: The maximum value of the fluorescence intensity when ionomycin was added
The TRPA1 activation ability of each test sample was measured in the same manner as in the above (2) except the test was conducted with A-967079 (1 μM), which is a TRPA1-specific antagonist, or without A-967079. In addition, intracellular Ca^2+ imaging assay was conducted in the same manner as in the above (2) except that a hTRPV1 stably expressing cell line, a hTRPM8 stably expressing cell line, or a Mock cell was used instead of the hTRPA1 stably expressing cell line. […]

Mock cell = assay: TRPA1 Activation Test 2: intracellular Ca2+ imaging assay 2-2, Mock cell; assay type: cell-based; settings: Table 9
Method: A hTRPA1 stably expressing cell line in which expression of hTRPA1 had been induced in advance by a conventional method was prepared in a 96 well clear bottom plate, and the hTRPA1 activating action of rhein (produced by Tokyo Chemical Industry Co., Ltd.) was tested. Specifically, after each well was washed with PBS, 50 μL of an assay buffer (Hanks' balanced salt solution containing no calcium ion or magnesium ion that contained 1 mM of CaCl2 dihydrate, 20 mM of HEPES, and 0.1% BSA) containing calcium fluorescent indicator Calbryte™ 520 AM (produced by AAT Bioquest) in a final concentration of 4 μM was added, followed by incubating at 33° C. for 45 minutes. After washing with the assay buffer, 100 μL of the assay buffer was added to each well. This plate was set to FlexStation 3 (Molecular Devices, LLC), and a fluorescence intensity (excitation wavelength 490 nm, fluorescence wavelength 525 nm) at 31° C. was measured every two seconds, and 30 seconds after the start of the measurement, 100 μL of an assay buffer containing a test sample (allyl isothiocyanate (AITC) of positive control or rhein) which was prepared to have a certain final concentration or DMSO was added. Then, a well in which an assay buffer containing ionomycin (having a final concentration of 10 μM after the addition) instead of the test samples was added was also prepared as a reference for fluorescence intensity.
as §1
Activation rate (%)=(Fmax[s]−F0)/(Fmax[i]−F0)×100 • Fmax[s]: The maximum value of the fluorescence intensity when the test sample or positive control was added • F0: The average value of the fluorescence intensity for 20 seconds after the start of the measurement (base line) • Fmax[i]: The maximum value of the fluorescence intensity when ionomycin was added […]

[1] = Anorexia Improving Test 2: cumulative amounts of food ingested of mice, rhein; assay type: in vivo
Method: Male ICR mice were housed in individual cages in which ALPHA-dri (Shepherd Specialty Papers) was laid, and were acclimatized and raised for at least one week or more while a powder feed (CE-2, CLEA Japan, Inc.) was given to the mice by using a powder feeder for mice (SN-950, Shinano Manufacturing Co., Ltd.). Then, for several days before the experiment, handling and oral administration training using a feeding needle (FG4202, Fuchigami Kikai Co., Ltd.) were conducted every day.
To 9 week-old mice under ad libitum feeding conditions, a carrier solution (containing 2% of dimethyl sulfoxide and 98% of a 0.5% methyl cellulose solution in volume ratio) or a rhein solution (obtained by dissolving 8.53 mg of rhein in 1 mL of the carrier solution) was orally administered from 9:20 a.m. (10 mL/kg body weight). […] Then, a feeder the mass of which had been measured in advance was set in the cage at 9:30 a.m. The masses of the feeder and the feed spilled in the cage 0.5, 1, 2, and 3 hours after the start of the feeding experiment were measured, and the ingested mass (g) at each time was measured (n=6).

TRPV1 activation (in words) (Human TRPV1 (hTRPV1); hTRPV1 stably expressing cell line): not activated | TRPV1 activation rate (Human TRPV1 (hTRPV1); test sample 100 μM): 2.40 ± 0.0395% | TRPV1 activation rate (Human TRPV1 (hTRPV1); test sample 200 μM): 5.49 ± 0.0830%
SMILES: O=C(O)c1cc(O)c2c(c1)C(=O)c1cccc(O)c1C2=O [Rhein, rhein]
Activation rate, Mock (Mock cell; test sample 100 μM): 3.49 ± 0.0595% | Activation rate, Mock (Mock cell; test sample 200 μM): 9.65 ± 0.143% | Cumulative amounts of food ingested of mice (in words) ([1]; 100 μmol/kg body weight, FIG. 4): significantly increased | Cumulative amounts of food ingested of mice (in words) ([1]; oral, 300 μmol/kg body weight, 0.5 to 3 hours, FIG. 3): increased
